According to the supplement of paper PMC10307832:

Legend:
Assay in all cases: relative viability (nuclei count vs DMSO), 5 days (fraction); higher = more cells survive
[1] = compound: C1COCCN1C2=NC(=NC3=C2OC4=C3C=CC=N4)C5=CC(=CC=C5)NC(=O)C6=CN=C(C=C6)N
Outline: (§1)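 Acceptance criteria were a control CV below 25% and at least one doubling per plate. Lung cancer cell lines in 1536-well plates got five library-drug doses (not always all listed) √10 apart by pinning and were left 5 days with no medium change. Viability divides treated-well nuclei by vehicle-well nuclei and is the median across plates. Nuclei were counted by MetaXpress from 4× Hoechst images.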

SGI-1776 = compound: CN1CCC(CNc2ccc3ncc(-c4cccc(OC(F)(F)F)c4)n3n2)CC1 [SGI-1776]
Outline: as §1

Entinostat = compound: Nc1ccccc1NC(=O)c1ccc(CNC(=O)OCc2cccnc2)cc1 [Entinostat]
Outline: as §1

Cell Line	relative viability ([1]; 0.02 µM)	relative viability ([1]; 0.06325 µM)	relative viability ([1]; 0.2 µM)	relative viability ([1]; 0.6325 µM)	relative viability ([1]; 2 µM)	relative viability (SGI-1776; 0.08 µM)	relative viability (SGI-1776; 0.8 µM)	relative viability (SGI-1776; 2.53 µM)	relative viability (SGI-1776; 8 µM)	relative viability (Entinostat; 0.02 µM)	relative viability (Entinostat; 0.06325 µM)	relative viability (Entinostat; 0.2 µM)	relative viability (Entinostat; 0.6325 µM)	relative viability (Entinostat; 2 µM)
NCI-H1648	0.93	0.788	0.853	0.538	0.794	1	0.884	0.844	0.767	1.09	1	0.823	0.639	0.526
NCI-H1650	0.865	1.01	0.8	0.896	0.618	0.945	0.879	0.84	0.442	0.999	0.929	0.964	0.635	0.334
NCI-H1651	0.994	0.994	0.978	0.951	0.8	1	0.999	0.971	0.929	1.02	0.971	1.02	0.908	0.692
NCI-H1666	1.08	0.994	0.975	0.826	0.764	0.98	1.02	0.98	0.899	1.1	1.05	1.08	0.799	0.514
NCI-H1703	0.805	0.975	0.76	0.685	0.505	0.909	0.796	0.588	0.218	1.05	1.3	1.33	1.03	0.646
NCI-H1734	0.994	1.06	0.929	0.931	0.613	0.946	0.945	1.04	0.842	1.04	1.16	1.04	0.862	0.628
NCI-H1755	0.997	1.06	0.999	0.956	0.841	0.954	0.993	0.945	0.819	0.98	0.94	0.927	0.665	0.467
NCI-H1792	0.953	0.965	0.893	0.655	0.393	1.01	0.984	0.859	0.662	1.16	1.1	1.02	0.649	0.451
NCI-H1793	0.822	1.01	0.793	0.876	0.644	0.815	1.31	0.931	0.783	1.03	1.03	0.966	0.488	0.405
NCI-H1915	1.02	1.06	1	1.03	0.74	1.03	0.987	0.995	1	1.01	0.997	1.01	0.573	0.392
NCI-H1944	0.96	1.01	0.931	0.985	0.918	0.968	1.06	0.981	0.739	0.933	0.851	0.714	0.321	0.261
NCI-H1975	0.881	0.968	0.895	0.874	0.684	1.06	1	0.925	0.79	0.942	0.826	0.784	0.466	0.267
NCI-H1993	0.981	0.953	0.797	0.946	0.736	0.926	1.04	0.924	0.733	0.986	1.02	0.899	0.805	0.645
NCI-H2009	0.979	1.09	0.971	0.94	0.846	1.08	0.992	1.05	0.858	1.02	0.974	0.969	0.796	0.644
NCI-H2023	1.08	1.13	0.85	0.83	0.496	0.983	1.04	0.853	0.598	0.849	0.786	0.495	0.166	0.0931
